This is an account of results in ChEMBL document CHEMBL1201862, “PubChem BioAssay data set” (2004).

The nature of assay [1]: Glucagon-like peptide 1 release potency, NCI-H716 cell line, dose-response, half-maximal inhibitory concentration (AID 1117344). In kind it is functional, cell-based.
The target in assay [2] is Large T antigen (Simian virus 40, UniProt P03070). The assay is classed as functional, Betapolyomavirus macacae.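 Further: Confirmatory-stage PubChem screen for compounds that inhibit SV40 T antigen.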
Sequence of Large T antigen (P03070 whole entry): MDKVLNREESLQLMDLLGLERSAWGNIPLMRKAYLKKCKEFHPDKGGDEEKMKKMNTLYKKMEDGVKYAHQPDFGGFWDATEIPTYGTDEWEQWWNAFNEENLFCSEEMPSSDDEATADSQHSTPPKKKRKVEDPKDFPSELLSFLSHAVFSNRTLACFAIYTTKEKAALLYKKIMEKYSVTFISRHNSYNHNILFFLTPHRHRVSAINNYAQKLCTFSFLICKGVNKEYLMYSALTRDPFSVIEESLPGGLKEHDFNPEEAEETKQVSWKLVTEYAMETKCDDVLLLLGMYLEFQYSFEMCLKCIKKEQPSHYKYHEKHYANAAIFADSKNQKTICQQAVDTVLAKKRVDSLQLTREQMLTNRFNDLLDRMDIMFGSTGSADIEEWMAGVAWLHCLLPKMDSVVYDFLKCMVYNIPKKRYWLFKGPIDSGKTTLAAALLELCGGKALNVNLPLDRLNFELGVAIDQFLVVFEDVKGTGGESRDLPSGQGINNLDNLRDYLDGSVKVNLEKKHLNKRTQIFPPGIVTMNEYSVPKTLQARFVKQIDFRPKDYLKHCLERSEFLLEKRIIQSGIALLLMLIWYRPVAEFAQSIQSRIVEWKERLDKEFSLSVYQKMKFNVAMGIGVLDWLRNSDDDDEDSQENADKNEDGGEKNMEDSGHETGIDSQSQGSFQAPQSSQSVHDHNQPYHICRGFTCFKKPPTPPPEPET
Assay [3] is described as follows: half-maximal inhibitory concentration for glucagon-like peptide-1 release, STC-1 cell line, dose-response (AID 1117345). In kind it is functional, cell-based.
The nature of assay [4]: Dose-response inhibition of insulin secretion in a rat insulinoma line at 5 mM glucose (AID 1117331). In kind it is functional, cell-based. The following applies: INS-1E.
Assay [5] deals with Solute carrier family 12 member 2/member 5 (Homo sapiens, UniProt P55011+Q9H2X9). In words: KCC2 and NKCC1 inhibition by rubidium flux, cell-based, NKCC1 counter-screen (AID 1734). In kind it is functional, HEK293.
The target of assay [6] is Protein-tyrosine kinase 2-beta (Homo sapiens, UniProt Q14289).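 Further: potency of inhibitors of PYK2 kinase phosphorylation of poly-GT substrate.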
Sequence of Protein-tyrosine kinase 2-beta (Q14289 whole entry): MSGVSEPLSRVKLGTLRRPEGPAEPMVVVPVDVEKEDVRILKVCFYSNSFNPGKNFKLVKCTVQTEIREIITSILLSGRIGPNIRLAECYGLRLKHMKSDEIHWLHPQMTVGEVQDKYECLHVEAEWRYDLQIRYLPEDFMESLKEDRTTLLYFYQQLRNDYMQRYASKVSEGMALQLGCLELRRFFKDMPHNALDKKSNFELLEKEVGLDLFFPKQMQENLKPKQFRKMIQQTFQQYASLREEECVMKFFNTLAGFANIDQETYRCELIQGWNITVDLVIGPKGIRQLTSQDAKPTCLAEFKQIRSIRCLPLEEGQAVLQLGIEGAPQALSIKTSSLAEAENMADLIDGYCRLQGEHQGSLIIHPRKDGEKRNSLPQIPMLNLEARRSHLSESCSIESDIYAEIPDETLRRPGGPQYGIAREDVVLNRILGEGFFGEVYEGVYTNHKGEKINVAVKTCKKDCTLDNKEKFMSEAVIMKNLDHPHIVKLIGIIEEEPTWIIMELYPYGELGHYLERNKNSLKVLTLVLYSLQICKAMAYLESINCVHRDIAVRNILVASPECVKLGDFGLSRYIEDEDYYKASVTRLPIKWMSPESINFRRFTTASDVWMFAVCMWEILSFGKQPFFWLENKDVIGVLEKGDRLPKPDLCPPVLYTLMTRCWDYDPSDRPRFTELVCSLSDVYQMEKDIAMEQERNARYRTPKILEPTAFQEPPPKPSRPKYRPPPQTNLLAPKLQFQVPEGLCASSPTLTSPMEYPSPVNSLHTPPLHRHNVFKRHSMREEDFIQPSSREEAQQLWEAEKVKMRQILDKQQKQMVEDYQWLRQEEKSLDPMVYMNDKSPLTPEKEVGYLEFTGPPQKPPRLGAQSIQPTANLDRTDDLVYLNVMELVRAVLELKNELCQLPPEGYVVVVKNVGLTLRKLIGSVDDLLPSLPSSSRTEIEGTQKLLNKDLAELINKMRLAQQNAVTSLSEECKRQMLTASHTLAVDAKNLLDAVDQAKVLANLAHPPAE
The target of assay [7] is Ephrin type-A receptor 4 (Mus musculus, UniProt Q03137). In words: inhibitors of EphA4 binding to KYL peptide, primary screen, biochemical, colorimetric, mouse EphA4 (AID 689). In kind it is functional.
Sequence of Ephrin type-A receptor 4 (Q03137 whole entry): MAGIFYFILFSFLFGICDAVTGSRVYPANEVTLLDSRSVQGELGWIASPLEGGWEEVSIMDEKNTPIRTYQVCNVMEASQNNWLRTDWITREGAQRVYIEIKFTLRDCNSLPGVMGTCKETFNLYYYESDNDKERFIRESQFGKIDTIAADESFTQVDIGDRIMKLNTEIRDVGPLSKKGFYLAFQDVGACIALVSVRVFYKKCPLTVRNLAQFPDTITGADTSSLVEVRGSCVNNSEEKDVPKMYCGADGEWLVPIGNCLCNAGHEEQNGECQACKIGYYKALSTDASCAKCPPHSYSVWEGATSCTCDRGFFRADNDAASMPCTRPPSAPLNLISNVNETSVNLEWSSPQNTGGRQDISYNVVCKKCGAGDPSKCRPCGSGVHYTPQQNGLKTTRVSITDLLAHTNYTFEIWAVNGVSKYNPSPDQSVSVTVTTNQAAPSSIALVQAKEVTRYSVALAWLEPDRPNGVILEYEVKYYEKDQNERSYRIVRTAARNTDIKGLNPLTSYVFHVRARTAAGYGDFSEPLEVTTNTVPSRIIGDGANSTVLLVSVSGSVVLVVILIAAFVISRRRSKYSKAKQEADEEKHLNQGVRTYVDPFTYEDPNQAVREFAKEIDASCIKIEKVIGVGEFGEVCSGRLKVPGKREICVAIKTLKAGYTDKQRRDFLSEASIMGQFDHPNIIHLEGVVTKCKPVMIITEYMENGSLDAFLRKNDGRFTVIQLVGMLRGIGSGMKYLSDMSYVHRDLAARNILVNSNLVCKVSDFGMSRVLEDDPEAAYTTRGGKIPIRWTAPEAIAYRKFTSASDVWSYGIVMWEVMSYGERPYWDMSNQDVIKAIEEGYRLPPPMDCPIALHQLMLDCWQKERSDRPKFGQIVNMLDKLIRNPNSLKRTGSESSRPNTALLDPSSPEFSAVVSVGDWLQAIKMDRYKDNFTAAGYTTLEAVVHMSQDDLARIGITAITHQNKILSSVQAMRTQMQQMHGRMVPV
The target of assay [8] is T1, Mannose-6-phosphate isomerase (Homo sapiens, UniProt P34949).
T1 sequence (P34949 whole entry): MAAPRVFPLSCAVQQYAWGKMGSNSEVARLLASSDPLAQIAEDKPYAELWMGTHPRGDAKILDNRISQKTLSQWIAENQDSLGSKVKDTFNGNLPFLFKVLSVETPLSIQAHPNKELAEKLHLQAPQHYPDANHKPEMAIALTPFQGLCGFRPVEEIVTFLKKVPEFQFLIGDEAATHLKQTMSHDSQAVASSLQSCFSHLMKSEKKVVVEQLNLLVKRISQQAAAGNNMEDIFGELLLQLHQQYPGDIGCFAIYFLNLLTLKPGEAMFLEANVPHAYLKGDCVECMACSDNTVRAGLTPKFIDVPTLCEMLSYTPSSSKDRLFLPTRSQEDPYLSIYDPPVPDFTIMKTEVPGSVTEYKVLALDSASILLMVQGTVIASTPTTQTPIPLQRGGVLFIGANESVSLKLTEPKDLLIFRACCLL
In words: inhibitors of human PMI, primary screen, biochemical, fluorescence intensity, coupled assay (AID 1209).

For assay [9], the target named is Genome polyprotein (Hepatitis C virus, UniProt Q2Q167). As to the kind of experiment: HCV core protein dimerization inhibitors, dose response, biochemical, TR-FRET (AID 2159).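 Further: blocks dimerization of HCV core protein measured by TR-FRET between tagged core106 pairs.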 Also on record: species or system Hepacivirus hominis.
Sequence of Genome polyprotein (Q2Q167 whole entry): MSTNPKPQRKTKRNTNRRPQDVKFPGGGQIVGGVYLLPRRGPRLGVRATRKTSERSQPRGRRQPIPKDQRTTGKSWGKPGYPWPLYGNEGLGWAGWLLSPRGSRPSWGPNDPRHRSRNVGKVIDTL
Assay [10] concerns the target NAD-dependent protein deacylase sirtuin-5, mitochondrial (Homo sapiens, UniProt Q9NXA8). As to the kind of experiment: SIRT5 desuccinylase inhibitors, dose response, biochemical, fluorescence imaging, cherry-pick, set 5 (AID 720591).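 Further: desuccinylation of succinyl peptide AMC substrate read as fluorescence after trypsin release; potency of inhibitors that lower fluorescence and may act on trypsin instead.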
For assay [11], the target named is Metabotropic glutamate receptor 7 (Homo sapiens, UniProt Q14831). As to the kind of experiment: mGlu7 positive allosteric modulators, dose response, cell-based, calcium mobilization, Galpha15 (AID 743384). In kind it is functional.
Sequence of Metabotropic glutamate receptor 7 (Q14831 whole entry): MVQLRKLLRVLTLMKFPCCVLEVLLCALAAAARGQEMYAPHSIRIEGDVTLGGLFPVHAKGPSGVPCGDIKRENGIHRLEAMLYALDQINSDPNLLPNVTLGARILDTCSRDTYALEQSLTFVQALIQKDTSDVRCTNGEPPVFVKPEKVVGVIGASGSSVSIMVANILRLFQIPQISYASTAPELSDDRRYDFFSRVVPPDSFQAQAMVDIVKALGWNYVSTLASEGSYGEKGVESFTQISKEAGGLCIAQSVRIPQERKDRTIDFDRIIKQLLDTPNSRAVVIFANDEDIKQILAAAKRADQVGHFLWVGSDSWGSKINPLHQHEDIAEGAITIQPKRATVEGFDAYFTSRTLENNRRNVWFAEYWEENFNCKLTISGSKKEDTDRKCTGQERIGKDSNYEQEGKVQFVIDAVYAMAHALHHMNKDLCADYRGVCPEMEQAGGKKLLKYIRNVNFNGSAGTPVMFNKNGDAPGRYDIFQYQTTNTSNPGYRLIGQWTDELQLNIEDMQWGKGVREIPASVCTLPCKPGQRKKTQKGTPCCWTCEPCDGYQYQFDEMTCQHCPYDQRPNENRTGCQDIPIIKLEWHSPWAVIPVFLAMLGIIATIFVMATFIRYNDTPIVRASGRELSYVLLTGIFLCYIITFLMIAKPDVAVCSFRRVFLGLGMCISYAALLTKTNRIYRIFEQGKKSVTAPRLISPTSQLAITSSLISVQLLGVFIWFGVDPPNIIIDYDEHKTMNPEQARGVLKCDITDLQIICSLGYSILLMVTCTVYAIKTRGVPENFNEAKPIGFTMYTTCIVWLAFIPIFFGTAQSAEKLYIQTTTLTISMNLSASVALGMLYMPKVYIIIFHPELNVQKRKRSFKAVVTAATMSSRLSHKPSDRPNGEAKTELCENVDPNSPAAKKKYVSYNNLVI
Assay [12] deals with T2, Oxysterols receptor LXR-beta (Homo sapiens, UniProt P55055).
T2 sequence (P55055 whole entry): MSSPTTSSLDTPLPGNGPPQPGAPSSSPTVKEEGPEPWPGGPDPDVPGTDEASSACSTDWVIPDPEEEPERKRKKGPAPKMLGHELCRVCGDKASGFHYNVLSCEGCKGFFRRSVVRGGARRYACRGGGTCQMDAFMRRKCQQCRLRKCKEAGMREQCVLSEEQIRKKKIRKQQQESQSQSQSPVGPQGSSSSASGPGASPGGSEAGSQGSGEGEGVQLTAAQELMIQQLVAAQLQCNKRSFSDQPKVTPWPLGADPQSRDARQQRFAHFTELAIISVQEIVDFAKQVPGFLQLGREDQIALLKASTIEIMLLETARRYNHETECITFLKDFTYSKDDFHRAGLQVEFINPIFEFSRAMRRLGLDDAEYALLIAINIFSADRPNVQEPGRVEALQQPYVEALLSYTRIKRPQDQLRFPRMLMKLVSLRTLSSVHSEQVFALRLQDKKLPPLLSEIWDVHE
In words: LXR agonists, Gal4 luciferase reporter, dose response, counter-screen for ssDAF-12 agonist project, cell-based, luminescence, HEK293, S. stercoralis campaign (AID 720737). The assay is classed as functional. The following applies: read-out: IC50 (the source's name).

Assay [13] can be described thus: Luminescence-based cell-based high throughput dose response assay to identify activators of the DAF-12 from the parasite S. stercoralis (ssDAF-12). The assay is classed as functional.
The target in assay [14] is T3, Fibrinogen beta chain (Homo sapiens, UniProt P02675). As to the kind of experiment: Fluorescence polarization-based biochemical high throughput dose response assay to identify inhibitors that disrupt the binding of a cyclic peptide (Tn6) to the fibrin proteolytic product D-Dimer and fragment E complex [DD(E )].
T3 sequence (P02675 whole entry, the tested form may be a part): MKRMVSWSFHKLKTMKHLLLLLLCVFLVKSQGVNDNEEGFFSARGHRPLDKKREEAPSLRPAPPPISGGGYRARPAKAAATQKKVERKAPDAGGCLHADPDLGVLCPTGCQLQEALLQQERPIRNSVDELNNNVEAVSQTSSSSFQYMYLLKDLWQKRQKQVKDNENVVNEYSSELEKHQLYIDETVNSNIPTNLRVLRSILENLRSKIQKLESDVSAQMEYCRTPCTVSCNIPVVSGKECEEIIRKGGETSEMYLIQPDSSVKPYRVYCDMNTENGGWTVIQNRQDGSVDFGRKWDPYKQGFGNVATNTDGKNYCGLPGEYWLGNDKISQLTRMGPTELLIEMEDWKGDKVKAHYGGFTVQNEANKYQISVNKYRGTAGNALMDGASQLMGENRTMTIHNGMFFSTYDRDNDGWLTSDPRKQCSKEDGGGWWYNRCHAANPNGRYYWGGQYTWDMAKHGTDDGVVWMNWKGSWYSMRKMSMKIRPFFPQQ
Assay [15] concerns the target T3, Fibrinogen beta chain. In words: Fluorescence polarization-based biochemical high throughput dose response assay to identify inhibitors that disrupt the binding of a cyclic peptide (Tn7) to the fibrin proteolytic product D-Dimer and fragment E complex [DD(E )].
Assay [16] deals with Mitogen-activated protein kinase 10 (Homo sapiens, UniProt P53779). In words: Dose response biochemical screening assay for inhibitors of c-Jun N-Terminal Kinase 3 (JNK3). [Related pubchem assays: 746 ].
Sequence of Mitogen-activated protein kinase 10 (P53779 whole entry): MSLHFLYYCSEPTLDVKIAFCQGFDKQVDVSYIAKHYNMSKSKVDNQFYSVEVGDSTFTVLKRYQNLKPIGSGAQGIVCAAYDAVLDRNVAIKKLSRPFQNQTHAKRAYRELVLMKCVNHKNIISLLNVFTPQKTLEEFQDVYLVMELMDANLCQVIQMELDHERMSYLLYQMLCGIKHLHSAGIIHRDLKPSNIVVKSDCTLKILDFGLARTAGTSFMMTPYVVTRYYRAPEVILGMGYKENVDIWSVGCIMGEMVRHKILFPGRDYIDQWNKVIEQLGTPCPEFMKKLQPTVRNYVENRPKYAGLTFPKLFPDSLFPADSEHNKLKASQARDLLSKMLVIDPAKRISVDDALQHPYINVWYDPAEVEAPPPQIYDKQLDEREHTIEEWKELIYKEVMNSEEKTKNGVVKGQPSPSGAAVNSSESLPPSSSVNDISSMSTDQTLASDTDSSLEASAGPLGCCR

SMILES strings stand for the structures. The source made the active and inactive calls. Bounds are passed on as bounds.

Sequence of NAD-dependent protein deacylase sirtuin-5, mitochondrial (Q9NXA8 whole entry): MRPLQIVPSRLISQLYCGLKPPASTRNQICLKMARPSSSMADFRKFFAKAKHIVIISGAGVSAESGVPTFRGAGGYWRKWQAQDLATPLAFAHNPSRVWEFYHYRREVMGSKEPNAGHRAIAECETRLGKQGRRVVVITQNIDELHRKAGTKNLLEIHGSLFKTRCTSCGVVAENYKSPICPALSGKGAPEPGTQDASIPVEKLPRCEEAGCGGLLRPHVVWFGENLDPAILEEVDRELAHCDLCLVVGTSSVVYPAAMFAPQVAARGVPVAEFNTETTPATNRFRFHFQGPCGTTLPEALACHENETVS

On to `Oc1ccc(O)cc1` [HYDROQUINONE], for which the IC50 in [1] was > 40 µM (inactive); in [2] it was 7.76 µM (active); in [3], 1.01 µM (active); in assay [4], > 33.3 µM (inactive).
`O=C(Cn1cnc2c(nnn2Cc2ccc(F)cc2)c1=O)N1CCCc2ccccc21`: the half-maximal inhibitory concentration (IC50) in assay [5] was 1.3 µM (active).
In the case of `CCOc1ccc(S(=O)(=O)N(CC(=O)N/N=C/c2ccc(-c3ccc([N+](=O)[O-])cc3)o2)c2ccccc2)cc1`, the IC50 was 15.8 µM (not active) in assay [6], 45.6 µM (active) in assay [7], 36.4 µM (active) in assay [8] and > 49.8 µM (not active) in assay [9].
For the molecule `O=C(O)c1ccc(S(=O)(=O)N(Cc2ccccc2)C2CCCCC2)cc1`, the AC50 in [10] was > 30 µM (inactive).
For `CC(=O)Nc1ccc(SCC(=O)c2cc(C)n(CCc3cccs3)c2C)cc1`, the EC50 in [11] is 2 µM (active).
`C=CCc1ccc(OCCCCOc2ccc(C(=O)O)cc2)c(OC)c1`: the EC50 in [12] was > 67.5 µM (inactive). Besides, in assay [13], the IC50 was > 67.5 µM (inactive).
As to `O=C(CSc1nnc(SCc2cccc3ccccc23)s1)Nc1ccc(S(=O)(=O)Nc2nccs2)cc1`, the IC50 in assay [14] is 15.6 µM (inactive); in assay [15], > 83.3 µM (inactive).
As to `N#Cc1c(N)nc2c(c1-c1ccco1)CCCCC2`, the 50% inhibitory concentration (IC50) in assay [16] is > 93.1 µM (not active).
